Measurements published in publication PMC4363177 (Bioorganic & medicinal chemistry, 2015).

How the values were obtained:
5-HT2A receptor = details: cited from earlier work
[1] = molecular target: human serotonin 5-HT2A receptor (Homo sapiens, UniProt P28223); test: Radioligand competitive displacement binding, 5-HT2A
[2] = molecular target: human serotonin 5-HT2B receptor (Homo sapiens, UniProt P41595); test: Radioligand competitive displacement binding, 5-HT2B
locomotor activity = details: administered alone; cited from earlier work

Sequence of human serotonin 5-HT2A receptor (P28223 whole entry): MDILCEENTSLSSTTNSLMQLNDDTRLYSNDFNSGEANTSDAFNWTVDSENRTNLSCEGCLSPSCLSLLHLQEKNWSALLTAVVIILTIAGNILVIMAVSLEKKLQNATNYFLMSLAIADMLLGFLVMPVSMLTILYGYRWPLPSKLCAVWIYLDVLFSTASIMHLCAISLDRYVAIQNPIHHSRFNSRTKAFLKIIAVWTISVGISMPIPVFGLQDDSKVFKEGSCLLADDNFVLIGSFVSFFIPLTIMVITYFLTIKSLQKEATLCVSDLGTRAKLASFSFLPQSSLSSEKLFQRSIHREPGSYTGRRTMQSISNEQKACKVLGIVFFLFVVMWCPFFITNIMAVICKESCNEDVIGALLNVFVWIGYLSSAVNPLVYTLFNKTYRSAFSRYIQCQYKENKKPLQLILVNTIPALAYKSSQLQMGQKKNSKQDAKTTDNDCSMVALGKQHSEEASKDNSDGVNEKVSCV
Sequence of human serotonin 5-HT2B receptor (P41595 whole entry): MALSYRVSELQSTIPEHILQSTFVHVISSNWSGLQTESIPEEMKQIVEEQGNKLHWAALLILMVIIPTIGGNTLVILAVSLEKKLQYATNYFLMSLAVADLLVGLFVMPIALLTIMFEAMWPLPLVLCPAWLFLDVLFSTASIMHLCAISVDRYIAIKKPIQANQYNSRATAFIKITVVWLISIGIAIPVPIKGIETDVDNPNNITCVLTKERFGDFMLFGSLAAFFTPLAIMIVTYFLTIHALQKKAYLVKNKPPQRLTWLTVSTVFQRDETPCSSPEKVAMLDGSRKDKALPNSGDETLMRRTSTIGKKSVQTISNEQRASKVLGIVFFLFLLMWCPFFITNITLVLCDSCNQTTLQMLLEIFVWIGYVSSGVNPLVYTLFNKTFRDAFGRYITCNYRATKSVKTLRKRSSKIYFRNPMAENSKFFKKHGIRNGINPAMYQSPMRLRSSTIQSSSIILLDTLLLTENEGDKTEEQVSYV

CN(C)[C@@H]1Cc2ccccc2[C@@H](c2ccccc2)C1 (relative stereo) [(−)-trans-PAT, (2S, 4R)-(−)-trans-4-phenyl-N,N-dimethyl-1,2,3,4-tetrahydronaphthalen-2-amine]
functional activity at 5-HT2A receptors (5-HT2A receptor): inverse agonist (and competitive antagonist) activity

CN(C)[C@@H]1Cc2ccccc2[C@@H](c2ccccc2)C1 [(+)-trans-PAT, trans-4-phenyl-N,N-dimethyl-1,2,3,4-tetrahydronaphthalen-2-amine]
Ki [1]: 470 nM
Ki [2]: 240 nM

CN1CCN(C2=Nc3cc(Cl)ccc3Nc3ccccc32)CC1 [clozapine]
effect on locomotor activity (locomotor activity): suppressed locomotor activity
